The target of data set [1] is PDE3. Briefly: Inhibition of PDE3 activity and Lineweaver-Burk analysis. In kind it is biochemical, guinea pig. The method, then: Activities of PDE1–5, partially separated from guinea pig lungs and hearts according to the method described by Ko et al., were measured with a two-step procedure according to the method of Thompson and Appleman, using cAMP with [^3H]-cAMP or cGMP with [^3H]-cGMP as substrates. The enzyme pμreparation (25 μL) was incubated for 30 min at 37°C in a total assay volume of […] containing 50 mM Tris-HCl (pH 7.4), 3 mM MgCl2, 1 mM dithiothreitol, 0.05% BSA, 1 μM cAMP with 0.2 μCi [^3H]-cAMP as a substrate alone or in the presence of 0.1 units calmodulin with 10 μM CaCl2 or 5 μM cGMP, and 1 μM cGMP with 0.2 μCi [^3H]-cGMP as another substrate alone or in the presence of 0.1 units calmodulin with 10 μM CaCl2. […] The reagents and homogenate were mixed on ice, and the reaction was initiated by transferring the mixture to a water bath at 37°C. Following a 30-min incubation, the reaction was stopped by transferring the reaction vessel to a bath of boiling water for 3 min. After cooling on ice, 20 μL of a 1 mg/mL solution of C. atrox snake venom was added to the reaction mixture, and the mixture was incubated at 37°C for 10 min. Unreacted [^3H]-cAMP or [^3H]-cGMP was removed by the addition of 500 μL of a 1-in-1 Tris-HCl (40 mM) buffer suspension of Dowex resin (1 × 8-200) with incubation on ice for 30 min. Each tube was then centrifuged for 2 min at 3700 g, and 150 μL of the supernatant was removed for liquid scintillation counting. […] The total protein in each fraction used was assayed according to the method described by Bradford. The PDE activities are shown as nmol/mg/min in the Lineweaver-Burk analysis.

Data set [2] relates to female BALB/c mice. Briefly: Xylazine/ketamine-induced anesthesia. The data set is classed as in vivo, mouse. To be noted: 0.1–1 μmol/kg s.c., 15 min before anesthesia. The method, then:
According to the method described by Robichaud et al. and modified by us, S-petasin (10–100 μmol/kg, s.c.) or rolipram (0.01–1 μmol/kg, s.c.), a reference drug, was injected into 8–12 week-old female BALB/c mice 1 h or 15 min, respectively, prior to an i.p. injection of xylazine (10 mg/kg)/ketamine (70 mg/kg). The vehicle (control) for S-petasin or for rolipram was a mixture of alcohol : DMSO : 30% HPβCD : saline (0.5 : 0.5 : 1 : 8 , v/v), or alcohol : DMSO : PEG 400 : saline (0.5 : 0.5 : 1 : 8, v/v), respectively. After loss of the righting reflex (i.e., when a mouse remained on its back and no longer spontaneously righted itself to a prone position), the duration of anesthesia was measured until its return as an endpoint.

For data set [3], the system named is guinea pig trachea. The following applies: cited from earlier work.
Data set [4] has as its system cAMP-phosphodiesterase (PDE). The arrangement: method as in PMID 11345692. To be noted: cited from earlier work.

A word on the Ki: it is a measure of affinity in units of concentration, obtained from inhibition or displacement. One may read the IC50 as the concentration needed to halve the response being measured. `Cc1[nH]c(=O)c(C#N)cc1-c1ccncc1` [milrinone, reference compound]: in data set [1] (Lineweaver-Burk analysis, cAMP substrate, read-out: Ki on PDE isozyme 3), the Ki came to 1600 ± 200 nM. In addition, the “Mode of inhibition of PDE3 activity” value in data set [1] (Lineweaver-Burk analysis, S-petasin 3–30 μM, milrinone 0.3–3 μM) is “competitively inhibited”. Moreover, the IC50 in data set [1] (mean ± SEM (n), read-out: IC50 on PDE isozyme 3) turned out to be 1500 ± 200 nM.
`COc1ccc(C2CNC(=O)C2)cc1OC1CCCC1` (stereo not shown) [rolipram, reference compound]: the “Duration of xylazine/ketamine-induced anesthesia” value in data set [2] is “dose-dependently and significantly shortened”.
For S-isopetasin, in data set [3] (precontracted by CCh and KCl, read-out: IC50 in relaxing guinea pig trachea), the IC50 is around 10000 nM. Further, the “Relaxing effect on guinea pig trachea” value in data set [3] (precontracted by histamine and LT D4) was “almost no effect”. Moreover, in data set [4], the “Inhibition of cAMP-phosphodiesterase (PDE) activity” value is “not”.

The values above are taken from PMC3094704, “S-Petasin, the Main Sesquiterpene of Petasites formosanus, Inhibits Phosphodiesterase Activity and Suppresses Ovalbumin-Induced Airway Hyperresponsiveness” (Evidence-based Complementary and Alternative Medicine : eCAM, 2011).
